Measurements as given in ChEMBL document CHEMBL1212786 (Antimicrob Agents Chemother, 2010).

Assays:
[1] = Oral bioavailability in monkey at 5 mg/kg after 24 hrs by LC/MS/MS analysis; assay type: ADME, organism-based, Macaca mulatta; settings: rhesus monkey, in vivo
[2] = Systemic clearance in Sprague-Dawley rat at 5 mg/kg, iv after 24 hrs by LC/MS/MS analysis; assay type: ADME, organism-based; set-up: dose 5 mg/kg, route intravenous; settings: in vivo
[3] = AUC (0 to infinity) in monkey at 5 mg/kg, po after 24 hrs by LC/MS/MS analysis; assay type: ADME, organism-based, Macaca mulatta; set-up: time infinity, dose 5 mg/kg, route oral; settings: rhesus monkey, plasma
[4] = Tmax in monkey at 7. 5 mg/kg, po by LC/MS/MS analysis; assay type: ADME, organism-based, Macaca mulatta; set-up: dose 5 mg/kg, route oral; settings: rhesus monkey, in vivo
[5] = system: Hepatocyte; experiment: Cellular uptake in human hepatocytes assessed per mg of cellular protein association with nonparenchymal fraction at 0.378 uM after 1 hr by LC/MS/MS analysis; assay type: ADME, cell-based
[6] = system: Hepatitis C virus; experiment: microbe, parasite or virus in culture; settings: Huh-7, 72 h
[7] = target: T1, Cytochrome P450 1A2 (Homo sapiens, UniProt P05177); experiment: Inhibition of human recombinant CYP1A2 after 30 mins; assay type: ADME
T1 sequence (P05177 whole entry): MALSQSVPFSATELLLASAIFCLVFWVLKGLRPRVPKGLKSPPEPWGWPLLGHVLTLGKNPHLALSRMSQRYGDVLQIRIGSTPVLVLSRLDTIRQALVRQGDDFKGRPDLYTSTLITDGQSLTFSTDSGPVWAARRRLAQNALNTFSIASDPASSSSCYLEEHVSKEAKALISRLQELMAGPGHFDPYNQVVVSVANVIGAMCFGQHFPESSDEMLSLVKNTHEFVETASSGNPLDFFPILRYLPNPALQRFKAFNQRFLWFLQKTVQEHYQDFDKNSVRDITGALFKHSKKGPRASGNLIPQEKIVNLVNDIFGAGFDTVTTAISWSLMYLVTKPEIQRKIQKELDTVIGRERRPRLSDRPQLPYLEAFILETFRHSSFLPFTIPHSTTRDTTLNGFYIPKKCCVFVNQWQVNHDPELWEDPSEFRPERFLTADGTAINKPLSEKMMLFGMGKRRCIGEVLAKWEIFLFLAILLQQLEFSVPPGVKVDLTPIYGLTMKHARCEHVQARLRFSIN

[8] = Tmax in monkey at 5 mg/kg, po by LC/MS/MS analysis; assay type: ADME, organism-based, Macaca mulatta; set-up: dose 5 mg/kg, route oral; settings: rhesus monkey, in vivo
[9] = Cytotoxicity against human Huh7ET cells assessed as lactate dehydrogenase release after 72 hrs; assay type: cell-based, Huh-7
[10] = system: Jurkat; experiment: cells; settings: Homo sapiens
[11] = Cytotoxicity against human Huh7ET cells assessed as lactate dehydrogenase release up to 10 uM after 72 hrs; assay type: cell-based; settings: huh-7, 72 h
[12] = Oral bioavailability in monkey at 7.5 mg/kg after 24 hrs by LC/MS/MS analysis; assay type: ADME, organism-based, Macaca mulatta; settings: rhesus monkey, in vivo
[13] = Apparent elimination half life Sprague-Dawley rat at 5 mg/kg, po after 24 hrs by LC/MS/MS analysis; assay type: ADME, organism-based; set-up: dose 5 mg/kg, route oral; settings: in vivo
[14] = Apparent elimination half life in monkey at 1.4 mg/kg, iv by LC/MS/MS analysis; assay type: ADME, organism-based, Macaca mulatta; set-up: dose 1.4 mg/kg, route intravenous; settings: rhesus monkey, in vivo
[15] = system: Hepatitis C virus; experiment: microbe, parasite or virus in culture; settings: Huh-7, 24 h
Description: Antiviral activity against Hepatitis C virus infected in human Huh7ET cells assessed as inhibition of viral replication after 24 hrs by luciferase reporter gene assay

[16] = Apparent elimination half life in monkey at 15 mg/kg, po after 24 hrs by LC/MS/MS analysis; assay type: ADME, organism-based, Macaca mulatta; set-up: dose 15 mg/kg, route oral; settings: rhesus monkey, in vivo
[17] = AUC (0 to infinity) in Sprague-Dawley rat at 2 mg/kg, iv after 24 hrs by LC/MS/MS analysis; assay type: ADME, organism-based; set-up: time infinity, dose 2 mg/kg, route intravenous; settings: plasma
[18] = AUC (2 to 24 hrs) in Sprague-Dawley rat liver at 10 mg/kg, iv by LC/MS/MS analysis; assay type: ADME, organism-based; set-up: time 2-24 hr, dose 10 mg/kg, route intravenous
[19] = Cmax in Sprague-Dawley rat whole blood at 30 mg/kg, po by LC/MS/MS analysis; assay type: ADME, organism-based; set-up: dose 30 mg/kg, route oral
[20] = Cmax in Sprague-Dawley rat at 5 mg/kg, iv after 24 hrs by LC/MS/MS analysis; assay type: ADME, organism-based; set-up: dose 5 mg/kg, route intravenous; settings: in vivo
[21] = Cmax in Sprague-Dawley rat at 5 mg/kg, po after 24 hrs by LC/MS/MS analysis; assay type: ADME, organism-based; set-up: dose 5 mg/kg, route oral; settings: in vivo
[22] = target: Cytochrome P450 3A4 (Homo sapiens, UniProt P08684); experiment: Inhibition of human recombinant CYP3A4 after 30 mins; assay type: ADME
Chain of Cytochrome P450 3A4 (P08684 whole entry): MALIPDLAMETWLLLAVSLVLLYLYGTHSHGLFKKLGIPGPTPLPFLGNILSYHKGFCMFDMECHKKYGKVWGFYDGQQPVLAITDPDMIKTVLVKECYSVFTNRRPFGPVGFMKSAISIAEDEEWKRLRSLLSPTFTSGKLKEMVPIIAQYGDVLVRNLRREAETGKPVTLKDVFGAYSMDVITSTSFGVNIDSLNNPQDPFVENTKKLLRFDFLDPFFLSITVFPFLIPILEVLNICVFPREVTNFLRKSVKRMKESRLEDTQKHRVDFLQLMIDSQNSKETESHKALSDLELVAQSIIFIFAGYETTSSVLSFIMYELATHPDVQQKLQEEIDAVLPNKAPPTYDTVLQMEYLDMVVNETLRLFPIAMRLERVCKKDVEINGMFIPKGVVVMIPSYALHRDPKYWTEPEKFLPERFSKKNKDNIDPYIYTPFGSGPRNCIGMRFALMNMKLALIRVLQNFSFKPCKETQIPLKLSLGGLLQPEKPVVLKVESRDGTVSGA

[23] = Apparent elimination half life in Sprague-Dawley rat at 5 mg/kg, iv by LC/MS/MS analysis; assay type: ADME, organism-based; set-up: dose 5 mg/kg, route intravenous; settings: in vivo
[24] = Systemic clearance in monkey at 1 mg/kg, iv after 24 hrs by LC/MS/MS analysis; assay type: ADME, organism-based, Macaca mulatta; set-up: dose 1 mg/kg, route intravenous; settings: rhesus monkey, in vivo
[25] = Cytotoxicity against human Huh7 cells assessed as lactate dehydrogenase release after 72 hrs; assay type: cell-based, Huh-7
[26] = system: Hepatitis C virus; experiment: microbe, parasite or virus in culture; settings: Huh-7, 72 h; remark: listed apart in the source
[27] = Cmax in Sprague-Dawley rat liver at 30 mg/kg, po by LC/MS/MS analysis; assay type: ADME, organism-based; set-up: dose 30 mg/kg, route oral
[28] = system: Hepatitis C virus; experiment: Antiviral activity against Hepatitis C virus infected in human Huh7ET cells assessed as inhibition of viral replication at 0.02 to 5 uM after 24 hrs by luciferase reporter gene assay; assay type: functional, Hepacivirus hominis, Huh-7
[29] = Oral bioavailability in Sprague-Dawley rat at 5 mg/kg after 24 hrs by LC/MS/MS analysis; assay type: ADME, organism-based; settings: in vivo
[30] = Apparent elimination half life in monkey at 7.5 mg/kg, po after 24 hrs by LC/MS/MS analysis; assay type: ADME, organism-based, Macaca mulatta; set-up: dose 7.5 mg/kg, route oral; settings: rhesus monkey, in vivo
[31] = AUC (2 to 24 hrs) in Sprague-Dawley rat whole blood at 10 mg/kg, po by LC/MS/MS analysis; assay type: ADME, organism-based; set-up: time upper 24 hr, time lower 2 hr, dose 10 mg/kg, route oral
[32] = AUC (0 to infinity) in Sprague-Dawley rat at 5 mg/kg, po after 24 hrs by LC/MS/MS analysis; assay type: ADME, organism-based; set-up: time infinity, dose 5 mg/kg, route oral; settings: plasma
[33] = system: Liver microsomes; experiment: Intrinsic clearance in human liver microsomes at 1 uM after 5 to 30 mins by MS analysis in presence of NADPH; assay type: ADME, Microsome
[34] = Apparent volume of distribution in Sprague-Dawley rat at 5 mg/kg, iv after 24 hrs by LC/MS/MS analysis; assay type: ADME, organism-based; set-up: dose 5 mg/kg, route intravenous; settings: in vivo, read-out: Vz
[35] = target: Cytochrome P450 2D6 (Homo sapiens, UniProt P10635); experiment: Inhibition of human recombinant CYP2D6 after 30 mins; assay type: ADME
Chain of Cytochrome P450 2D6 (P10635 whole entry): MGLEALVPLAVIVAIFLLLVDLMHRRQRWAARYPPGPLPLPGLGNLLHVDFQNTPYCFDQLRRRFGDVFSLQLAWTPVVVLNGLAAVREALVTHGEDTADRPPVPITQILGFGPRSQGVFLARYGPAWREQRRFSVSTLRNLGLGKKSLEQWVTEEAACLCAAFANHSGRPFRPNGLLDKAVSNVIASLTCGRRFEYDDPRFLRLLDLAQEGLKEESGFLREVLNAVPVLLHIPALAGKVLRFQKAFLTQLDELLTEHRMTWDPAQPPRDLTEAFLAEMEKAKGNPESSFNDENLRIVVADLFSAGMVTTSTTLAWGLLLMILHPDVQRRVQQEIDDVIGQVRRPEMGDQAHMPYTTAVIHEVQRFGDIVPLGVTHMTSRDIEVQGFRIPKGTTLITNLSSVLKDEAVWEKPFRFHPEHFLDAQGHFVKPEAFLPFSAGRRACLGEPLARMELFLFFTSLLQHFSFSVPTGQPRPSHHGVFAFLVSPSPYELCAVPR

[36] = AUC (0 to infinity) in Sprague-Dawley rat at 20 mg/kg, po after 24 hrs by LC/MS/MS analysis; assay type: ADME, organism-based; set-up: time infinity, dose 20 mg/kg, route oral; settings: plasma
[37] = Apparent elimination half life Sprague-Dawley rat at 20 mg/kg, po after 24 hrs by LC/MS/MS analysis; assay type: ADME, organism-based; set-up: dose 20 mg/kg, route oral; settings: in vivo
[38] = Tmax in Sprague-Dawley rat at 5 mg/kg, po by LC/MS/MS analysis; assay type: ADME, organism-based; set-up: dose 5 mg/kg, route oral; settings: in vivo
[39] = Systemic clearance in monkey at 1.4 mg/kg, iv after 24 hrs by LC/MS/MS analysis; assay type: ADME, organism-based, Macaca mulatta; set-up: dose 1.4 mg/kg, route intravenous; settings: rhesus monkey, in vivo
[40] = AUC (2 to 24 hrs) in Sprague-Dawley rat liver at 10 mg/kg, po by LC/MS/MS analysis; assay type: ADME, organism-based; set-up: time 2-24 hr, dose 10 mg/kg, route oral
[41] = Cmax in monkey at 15 mg/kg, po after 24 hrs by LC/MS/MS analysis; assay type: ADME, organism-based, Macaca mulatta; set-up: dose 15 mg/kg, route oral; settings: rhesus monkey, in vivo
[42] = Apparent volume of distribution in Sprague-Dawley rat at 2 mg/kg, iv after 24 hrs by LC/MS/MS analysis; assay type: ADME, organism-based; set-up: dose 2 mg/kg, route intravenous; settings: in vivo, read-out: Vz

bioavailability [1]: 17.7%
clearance [2]: 2.23 mL/min/kg
AUC(0-inf) [3]: 27900 ng·h/mL
Tmax [4]: 2.7 h
Drug uptake [5]: 0.55 ng/mg
EC50 [6]: 0.09 µM
IC50 [7]: > 100 µM
Tmax [8]: 2 h
EC50 [10]: 9.9 µM
bioavailability [12]: 15.7%
half-life [13]: 19.2 h
half-life [14]: 42.2 h
EC50 [15]: 0.2 µM
half-life [16]: 43.3 h
AUC(0-inf) [17]: 22500 ng·h/mL
AUC(0-t) [18]: 139000 ng·h/mL
Cmax [19]: 2220 ng/mL
Cmax [20]: 2990 ng/mL
Cmax [21]: 900 ng/mL
IC50 [22]: 58.5 µM
half-life [23]: 22.2 h
clearance [24]: 0.528 mL/min/kg
EC50 [26]: 0.12 µM
Cmax [27]: 16800 ng/mL
bioavailability [29]: 23.1%
half-life [30]: 33.1 h
AUC(0-t) [31]: 18000 ng·h/mL
AUC(0-inf) [32]: 13000 ng·h/mL
clearance [33]: 14 µL/min/mg
Vd [34]: 4.3 L/kg
IC50 [35]: > 100 µM
AUC(0-inf) [36]: 42500 ng·h/mL
half-life [37]: 23.8 h
Tmax [38]: 4 h
clearance [39]: 0.47 mL/min/kg
AUC(0-t) [40]: 120000 ng·h/mL
Cmax [41]: 2430 ng/mL
Vd [42]: 3.37 L/kg
Structure (SMILES): C/C=C/C[C@@H](C)[C@@H](O)[C@H]1C(=O)N[C@@H](CC)C(=O)N(C)C(SCCN(C)C)C(=O)N(C)[C@@H](CC(C)(C)O)C(=O)N[C@@H](C(C)C)C(=O)N(C)[C@@H](CC(C)C)C(=O)N[C@@H](C)C(=O)N[C@H](C)C(=O)N(C)[C@@H](CC(C)C)C(=O)N(C)[C@@H](CC(C)C)C(=O)N(C)[C@@H](C(C)C)C(=O)N1C (single isomer, unassigned) [SCY 635]
CC50 at 72 h [9]: 14.2 µM
Activity [11]: Non-toxic
CC50 at 72 h [25]: 13.7 µM
inhibition (INH) [28]: 70%
